The SangsterLogP compilation

Key:
[1] = from Bazaco, J.; Coca, C. (1989). Relation between the partition coefficient (Log Pow) and capacity factor (Log k') derived from reversed-phase HPLC of a series of benzaldehyde derivatives. Ciencia e …
[2] = not given; remark: listed apart in the source
[3] = method code SF-RC, from DOI: 10.1111/j.2042-7158.1987.tb06949.x, PMID: 2882008; conditions: pH 1.0
[4] = not given; remark: listed apart in the source
[5] = not given; remark: listed apart in the source
[6] = not given; remark: listed apart in the source
[7] = method code SF-AS, from DOI: 10.1016/j.bmc.2011.10.017, PMID: 22094277; conditions: pH 7.4
[8] = method code SF, from PMID: 2704; conditions: pH 1.0
[9] = method code SF-CR, from DOI: 10.1248/cpb.21.2417, PMID: 4779830; conditions: pH 6.0
[10] = method code SF-AS, from DOI: 10.1248/cpb.36.1393
[11] = not given; remark: listed apart in the source
[12] = method code SF, from DOI: 10.1016/s0969-8051(99)00063-3, PMID: 10628565; conditions: pH 7.4
[13] = method code SF-HPLC, from DOI: 10.1002/jps.2600780218, PMID: 2715940; conditions: pH 7.4
[14] = method code SF-HPLC, from DOI: 10.1002/jat.2550130210, PMID: 8486911; conditions: pH 13.0
[15] = method code SF-AS, from KuchaÅ™, M.; Rejholec, V.; Miller, V. (1985). Chromatographically determined lipophilicity and intramolecular interactions of bioactive compounds. Pharmacochemistry Library, 8, 321-331.; conditions: pH 3.4
[16] = method code SF-HPLC, from DOI: 10.1016/s0021-9673(01)81976-2, PMID: 4066822
[17] = not given; remark: listed apart in the source
[18] = method code SF-AS, from Holmes, L.; Lough, E. (1976). Effect of Intramolecular Hydrogen Bonding on Partition Coefficients [Technical Note]. Defence Research Establishment Suffield.
[19] = not given; remark: listed apart in the source
[20] = method code SF-RC, from DOI: 10.1002/ps.2780300102; conditions: pH 1.0
[21] = not given; remark: listed apart in the source
[22] = method code SF-MS, from DOI: 10.1016/j.fluid.2014.01.017; conditions: pH 7.6
[23] = method code SF-RC, from DOI: 10.1021/jm201482p, PMID: 22339166; conditions: pH 6.8
[24] = method code SF-HPLC, from DOI: 10.1002/ps.2780190203; conditions: pH 1.0
[25] = method code SF-HPLC, from DOI: 10.1016/s0021-9673(01)83534-2
[26] = not given; remark: listed apart in the source
[27] = not given; remark: listed apart in the source
[28] = from Rich, R. (1990). Partition coefficients of quinones and their relation to biochemical reactivity. In Lenaz, G. (Ed.), Highlights in Ubiquinone Research: Proceedings of the International Symposium, …
[29] = method code SF, from DOI: 10.1002/ps.2780340212; conditions: pH 7.0
[30] = method code SF-HPLC, from DOI: 10.1002/jps.2600831027, PMID: 7884677; conditions: pH 2.0

COc1cccc(C=O)c1
logP [1]: 1.71

CC(=O)c1ccccc1
logP: 1.71

CCOCC(O)Cn1ccnc1[N+](=O)[O-] (configuration not stated)
logP [2]: -0.07

O=C(O)Cc1cccc(I)c1
logD [3]: 2.49

O=C(O)CCc1ccc(I)cc1
logP [4]: 2.81

COc1cccc(C(=O)O)c1OC
logP [5]: 1.94

COc1ccc(C=O)cc1OC
logP [1]: 1.22

CON(C)C(=O)Nc1ccc(Cl)c(Cl)c1
logP [6]: 3

CCOC(=O)[C@@]1(C)[C@H](CO)CC=[N+]1[O-]
logD [7]: -1.3

COC(=O)COc1ccccc1C
logD [8]: 2.08

C/C=C/OCC(O)Cn1ccnc1[N+](=O)[O-] (configuration not stated)
logP [2]: 0.28

CN(c1ccccn1)S(=O)(=O)c1ccc(N)cc1
logD [9]: 1.3

CC(=O)Nc1ccc(C(=O)O)c(O)c1
logD [3]: 1.62

Clc1ccc2c(Cl)ccnc2c1
logD ([10]; pH 7.4): 3.57

CCNc1nc(Cl)nc(NC(C)(C)C)n1
logP [11]: 3.06

N#CCc1ccccc1
logP: 1.47

Cc1ccccc1OCC(=O)O
logD [8]: 1.96

O=C(O)CNC(=O)c1ccccc1I
logP [4]: 1.08

OC[C@@H]1[C@@H](O)[C@H](O)[C@@H](O)CN1C/C=C/I
logD [12]: -0.37

CC(=O)N(C)c1ccc([N+](=O)[O-])cc1
logD [13]: 0.91

CCCCCC(C)(C)N
logD [14]: 2.19

O=C(O)CCCC(=O)c1ccccc1
logD [15]: 1.49

COC1=CC(=O)C(OC)=C(OC)C1=O
logP [16]: 0.22

O=C[C@H](NC(=O)N(CCCl)N=O)[C@@H](O)[C@H](O)[C@H](O)CO
logP [17]: -1.02

CCC(=O)c1ccc(O)cc1
logP [18]: 2.03

CON=C(C#N)C(=O)N[C@@H](CS(C)(=O)=O)C(=O)O
logP [19]: -0.73

O=C(O)Cc1ccc(Cl)cc1
logD [20]: 2.2

CCc1ccc(C(=O)O)cc1
logP [21]: 2.85

CON=C(C#N)C(=O)N[C@@H](CSC)C(=O)O
logP [19]: 0.52

CCC(=O)c1ccccc1O
logP [18]: 2.54

COC1=C(OC)C(=O)C(OC)=C(OC)C1=O
logP [16]: 0.41

CN1CC(O)N(c2nnc(C(C)(C)C)s2)C1=O (configuration not stated)
logP [6]: 1.45

CS(=O)(=O)c1ccc(CC(=O)O)cc1
logD [20]: 0.06

CCCCCC/C=C/C=O
logD [22]: 3.11

O=c1[nH]c(=O)n([C@H]2CC(F)[C@@H](CO)O2)cc1I (some centres not stated)
logD [23]: -0.03

CN(C)S(=O)(=O)c1ccc(N)cc1
logD [9]: 0.67

O=C(O)COc1ccc(Oc2ccc(Cl)cc2Cl)cc1
logD [24]: 4.51

[O-][n+]1ccc(Nc2ccc(O)cc2)c2ccc(Cl)cc21
logD ([10]; pH 2.8): 1.23

CC(C)=NNc1ccc([N+](=O)[O-])cc1[N+](=O)[O-]
logP [25]: 3.05

O=C(O)Cc1ccc(Cl)c(Cl)c1
logP [26]: 2.9

Oc1ccc(CCOCC2CC2)cc1
logP [27]: 3

CC(C)(C)c1cc(C(C)(C)C)c2c(c1F)CO[P@@](=O)(OC[C@H]1O[C@@H](n3cc(I)c(=O)[nH]c3=O)C[C@@H]1O)O2
logD [23]: 2.23

CCCCC/C=C\C=O
logD [22]: 2.38

CC1=C(C)C(=O)C=CC1=O
logP [28]: 1.23

COC(=O)c1cc([N+](=O)[O-])cc([N+](=O)[O-])c1
logP [25]: 1.84

CC(O)(C(=O)O)c1ccccc1 (configuration not stated)
logD [15]: 0.83

CC(=O)Nc1ccc(C#N)cc1
logD [13]: 1.36

CS(=O)(=O)c1cccc(NC(N)=O)c1
logD [29]: -0.1

CC(=O)OCC1C(OC(C)=O)C(OC(C)=O)C(OC(C)=O)CN1Cc1cccc(I)c1 (configuration not stated)
logD [12]: 3.16

COc1c(O)ccc(O)c1OC
logP [28]: 0.61

CCCCCCCCN
logD [14]: 3.3

COCCc1ccc(O)cc1
logP [27]: 1.85

NC(=O)Cc1ccc(C(=O)O)cc1
logD [30]: 0.3

CCNc1nc(Cl)nc(N(CC)CC)n1
logP [11]: 3.07

CCCCc1c(C)[nH]c(NCC)nc1=O
logD [29]: 2.2

CCCOC(=O)c1ccccc1
logP [5]: 3.23

N#CCc1ccc(C(=O)O)cc1
logD [30]: 1.18

O=C(O)COc1cc(Cl)cc(Cl)c1
logD [24]: 2.84

Cc1ncc(CNC(=O)N(CCCl)N=O)c(N)n1
logP [17]: 0.39

CC(C)c1ccc(C(=O)O)cc1
logP [21]: 3.24

O=C(O)Cn1c(=O)sc2cccc(Cl)c21
logP [26]: 2.21

CC(C)OC(=O)[C@@]1(C)[C@H](CO)CC=[N+]1[O-]
logD [7]: -0.96
